US20120015344A1, “Methods, compositions, and apparatus for the detection of viral strains” (priority 2010, published 2012)
“And” between values parts separate entries of the source, which are not always exact repeats. Equal values may be shown once. “Also recorded” adds a separate entry of the source. Read-outs that look alike come from different tables or passages of the source. Marks after values point to notes of the source that are not given here.

What was measured:
[1] = system: H5 Hemagglutinin (HA) Protein from Influenza Virus, A/Vietnam/1203/04 (H5N1); assay type: binding, Influenza A virus H5N1 (A/Vietnam/1203/04)
H5N1 = details: cited from earlier work
[2] = system: H5 Hemagglutinin (HA) Protein from Influenza Virus, A/Vietnam/1203/04 (H5N1); assay type: binding, Influenza A virus H5N1 (A/Vietnam/1203/04); remark: listed apart in the source
[3] = molecular target: T1, H1 hemagglutinin (HA) protein, A/South Carolina/1/18 (H1N1) (Influenza A virus, UniProt Q9WFX3); assay type: binding, Influenza A virus H1N1 (A/South Carolina/1/18)
T1 sequence (Q9WFX3 18-566 limits assumed): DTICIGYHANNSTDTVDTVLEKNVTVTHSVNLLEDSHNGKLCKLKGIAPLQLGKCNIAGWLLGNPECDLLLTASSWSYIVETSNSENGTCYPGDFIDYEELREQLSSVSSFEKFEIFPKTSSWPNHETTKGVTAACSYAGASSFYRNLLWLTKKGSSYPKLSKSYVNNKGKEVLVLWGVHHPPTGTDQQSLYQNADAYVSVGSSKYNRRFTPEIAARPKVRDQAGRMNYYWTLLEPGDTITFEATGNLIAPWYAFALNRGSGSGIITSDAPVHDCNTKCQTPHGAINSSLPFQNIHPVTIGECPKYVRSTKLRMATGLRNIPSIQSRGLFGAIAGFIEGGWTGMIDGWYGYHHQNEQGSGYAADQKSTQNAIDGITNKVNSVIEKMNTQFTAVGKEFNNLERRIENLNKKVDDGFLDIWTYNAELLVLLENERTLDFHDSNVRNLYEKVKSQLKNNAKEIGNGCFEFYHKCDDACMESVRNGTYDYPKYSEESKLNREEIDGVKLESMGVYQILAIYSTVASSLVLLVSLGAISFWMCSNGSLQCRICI

[4] = molecular target: T1, H1 hemagglutinin (HA) protein, A/South Carolina/1/18 (H1N1); assay type: binding, Influenza A virus H1N1 (A/South Carolina/1/18); remark: listed apart in the source

For “Neu5Acα2-3Galβ1-4GlcNAcβ-SpNH-LC-LC-Biotin [3′SLN]”, the “binding between H5 and glycan (avidity, from ΔQ)” value [1] is listed as “statistically higher avidity; also recorded: high avidity of binding” and the “Predicted to Bind H5N1” value (H5N1) is listed as “Yes”.
In the case of “Neu5Acα2-3Galβ1-4[Fucα1-3]GlcNAcβ-SpNH-LC-LC-Biotin [3′SLe^x]”, the “binding between H5 and glycan (avidity, from ΔQ)” value [2] is given as “high avidity of binding”, the “Mean ΔQ ± S.D. (n = 3)” value [3] is given as 0.2259 ± 0.0115^f mC and 0.2974 ± 0.0001^f mC and the “Predicted to Bind H5N1” value (H5N1) is given as “Yes”. The “Mean ΔQ ± S.D. (n = 3)” value [4] was 0.08906 ± 0.0045^b mC and 0.1186 ± 0.0180^b mC.
In the case of “Neu5Acα2-3[GalNAcβ1-4]Galβ1-4GlcNAcβ-SpNH-LC-LC-Biotin [CT/Sda]”, the “Predicted to Bind H5N1” value (H5N1) is listed as “No”.
In the case of “Neu5Acα2-3[Galβ1-4GlcNAcβ1-3]2β-SpNH-LC-LC-Biotin [3′S-Di-LN]”, the “Predicted to Bind H5N1” value (H5N1) is listed as “Yes”.
For “Neu5Acα2-6Galβ1-4GlcNAcβ-SpNH-LC-LC-Biotin [6′SLN]”, the “Mean ΔQ ± S.D. (n = 3)” value [1] is listed as 0.1388 ± 0.0056^h mC, the “binding between H5 and glycan (avidity, from ΔQ)” value [1] is listed as “statistically lower binding” and the “Predicted to Bind H5N1” value (H5N1) is listed as “No”.
For “Neu5Acα2-6[Galβ1-4GlcNAcβ1-3]2β-SpNH-LC-LC-Biotin [6′S-Di-LN]”, the “Predicted to Bind H5N1” value (H5N1) is given as “No”.
For “Neu5Acα2-8Neu5Acα2-8Neu5Acα2-3Galβ1-4Glcβ-SpNH-LC-LC-Biotin [GT3]”, the “Mean ΔQ ± S.D. (n = 3)” value [2] is given as 0.2881 ± 0.0172^f mC, the “binding between H5 and glycan (avidity, from ΔQ)” value [2] is given as “statistically lower binding” and the “Predicted to Bind H5N1” value (H5N1) is given as “No”.
